# According to patent US20210292330A1, “PYRROLIDINE-FUSED HETEROCYCLES” (Erasca, Inc., priority 2020, published 2021):
# Molecular target: T1, KRAS 4B G12C protein (Homo sapiens, UniProt P01116, G12C)
# T1 construct: This protein contained 188 amino acids in total, including an N-terminal 6-Histidine tag; made in house; host or cells: E. coli BL21
# Test: In vitro covalent adduct formation (CAF) assay by LC-MS
# Format: binding
# Settings: compound 10 μM, protein 5 μM, 22° C., percentage of protein bound by the compound
# Procedure: In vitro covalent adduct formation assay: Covalent adduct formation (CAF) reactions between Cys12 of the KRAS 4B G12C protein and some of the compounds of Table 1 were measured in vitro using liquid chromatography-mass spectrometry (LC-MS).
# Recombinant Human KRAS 4B protein containing the G12C mutation was used in compound screening experiments. This protein contained 188 amino acids in total, including an N-terminal 6-Histidine tag, followed by a Tobacco Etch Virus (TEV) tag, followed by residues 1-169 of the native KRAS 4B sequence. The exact mass of the protein was 21,310 Da as determined by mass spectrometry. The full amino acid sequence is shown below:
# The recombinant protein was expressed in E. coli BL21 cells and purified using affinity chromatography via a Ni-NTA column. […] Pure KRAS 4B G12C protein was diluted to a concentration of 5 μM in Tris Buffered Saline, pH 7.4. The compounds were dissolved in DMSO and added to the diluted protein to make a 10 μM concentration. The total DMSO concentration in the reaction was 4%. The reaction was mixed by pipetting and incubated at 22° C. for one hour. Aliquots of the reaction were taken over time and diluted 2:1 in 0.1% formic acid. The intact mass of the protein samples was measured by LC-MS using a QExactive+ mass spectrometer (Thermo Scientific). An amount of 500 ng total protein was injected onto a C8 reverse phase column, eluted with a seven-minute gradient of 30%-90% acetonitrile/0.1% formic acid, and analyzed for intact mass by the mass spectrometer. Adducts identified were confirmed to be within 1 Dalton of the expected mass, and the relative ratios of free:adduct protein were used to quantify the percentage of protein bound by the compound. CAF reactions were run in duplicate, with a typical variability of ±5%.
CAF (10 minutes/60 minutes) at 10 micromolar: 10 minutes,CAF (10 minutes/60 minutes) at 10 micromolar: 60 minutes,Structure (SMILES)
8%,48%,C=C(F)C(=O)N1CCN(c2nc(OC[C@@H]3CCCN3C)nc3c2CN(Cc2c(Cl)cccc2OC(F)F)C3)C[C@@H]1CC#N [1-104]
53%,88%,"C=C(F)C(=O)N1CCN(c2nc(OC[C@@H]3CCCN3C)nc3c2CN(C2CCCc4cccc(Cl)c42)C3)C[C@@H]1CC#N (stereo partly drawn) [1-126, 2-[(2S)-4-[6-(8-chloro-1,2,3,4-tetrahydronaphthalen-1-yl)-2-{[(2S)-1-methylpyrrolidin-2-yl]methoxy}-5H,7H-pyrrolo[3,4-d]pyrimidin-4-yl]-1-(2-fluoroprop-2-enoyl)piperazin-2-yl]acetonitrile]"
21%,65%,C=CC(=O)N1C[C@H](C)N(c2nc(OC[C@@H]3CCCN3C)nc3c2CN(Cc2cc(O)ccc2C)C3)C[C@H]1C [1-18]
41%,52%,C=CC(=O)N1CCN(c2nc(OC[C@@H]3CCCN3C)nc3c2CN(Cc2ccc(F)cc2C(C)C)C3)C[C@@H]1CC#N [1-196]
95%,94%,C=C(F)C(=O)N1CCN(c2nc(OC[C@@H]3CCCN3C)nc3c2CN(Cc2cc(O)ccc2C(C)C)C3)C[C@@H]1CC#N [1-218]
20%,62%,C=CC(=O)N1CCN(c2nc(OC[C@@H]3CCCN3C)nc3c2CN(Cc2cc(C(F)(F)F)ccc2C)C3)C[C@@H]1CC#N [1-8]
0%,2%,C=CC(=O)N1CCN(c2nc(OC[C@@H]3CCCN3C)nc3c2CN(C2CCc4ccccc42)C3)C[C@@H]1Cn1ccnn1 (some centres unmarked) [1-214]
15%,18%,"C=CC(=O)N1CCN(c2nc(OC[C@@H]3CCCN3C3CC3)nc3c2CN(C2CCc4ccccc42)C3)C[C@@H]1CC#N (stereo partly drawn) [1-198, 2-((2S)-1-acryloyl-4-(2-(((S)-1-cyclopropylpyrrolidin-2-yl)methoxy)-6-(2,3-dihydro-1H-inden-1-yl)-6,7-dihydro-5H-pyrrolo[3,4-d]pyrimidin-4-yl)piperazin-2-yl)acetonitrile]"
0%,6%,C=CC(=O)N1CCN(c2nc(OC[C@@H]3CCCN3C)nc3c2CN(Cc2c(Cl)cccc2OC(F)F)C3)[C@@H](C)C1 [1-99]
84%,97%,C=CC(=O)N1CCN(c2nc(OC[C@@H]3CCCN3C)nc3c2CN(Cc2cccc4[nH]ncc24)C3)C[C@@H]1CC#N [1-108]
53%,92%,C=CC(=O)N1CCN(c2nc(OC[C@@H]3CCCN3C)nc3c2CN(Cc2cc(O)ccc2F)C3)[C@@H](C)C1 [1-50]
0%,4%,C=CC(=O)N1CCN(c2nc(OC[C@@H]3CCCN3C)nc3c2CN(Cc2cc(OC)ccc2C)C3)[C@@H](C)C1 [1-2]
0%,2%,"C=C(F)C(=O)N1CCN(c2nc(OC[C@@H]3CCCN3C)nc3c2CN(Cc2cc(O)c(Cl)cc2C)C3)C[C@@H]1CC#N [1-326, 2-[(2S)-4-{6-[(4-chloro-5-hydroxy-2-methylphenyl)methyl]-2-{[(2S)-1-methylpyrrolidin-2-yl]methoxy}-5H,7H-pyrrolo[3,4-d]pyrimidin-4-yl}-1-(2-fluoroprop-2-enoyl)piperazin-2-yl]acetonitrile]"

# Continued, compound first:
Structure (SMILES),CAF (10 minutes/60 minutes) at 10 micromolar: 10 minutes,CAF (10 minutes/60 minutes) at 10 micromolar: 60 minutes
C=CC(=O)N1CCN(c2nc(OC[C@@H]3CCCN3C)nc3c2CN(Cc2cc(OC)ccc2Cl)C3)C[C@@H]1CC#N [1-68],90%,97%
"C=CC(=O)N1CCN(c2nc(OC[C@@H]3CCCN3C)nc3c2CN(C2CCc4ccccc42)C3)C[C@@H]1C#N (stereo partly drawn) [1-155, (2R)-1-acryloyl-4-(6-(2,3-dihydro-1H-inden-1-yl)-2-(((S)-1-methylpyrrolidin-2-yl)methoxy)-6,7-dihydro-5H-pyrrolo[3,4-d]pyrimidin-4-yl)piperazine-2-carbonitrile]",66%,82%
C=CC(=O)N1C2CC(=O)CC1CN(c1nc(OC[C@@H]3CCCN3C)nc3c1CN(C1CCc4ccccc41)C3)C2 (some centres unmarked) [1-233],0%,5%
C=CC(=O)N1CCN(c2nc(OC[C@@H]3CCCN3C)nc3c2CN(Cc2ncccc2Cl)C3)C[C@@H]1CC#N [1-113],59%,89%
C=CC(=O)N1CCN(c2nc(OC[C@@H]3CCCN3C)nc3c2CN(Cc2ccccc2)C3)C[C@@H]1CC#N [1-77],27%,43%
C=CC(=O)N1CC2CC(=O)CC(C1)N2c1nc(O[C@@H]2CN(C)C[C@H]2OC)nc2c1CN(C1CCc3ccccc31)C2 (some centres unmarked) [1-252],0%/ 0%,0%/ 0%
C=CC(=O)N1CCN(c2nc(OCC3CCCC3)nc3c2CN(Cc2c(O)cccc2F)C3)C[C@@H]1CC#N [1-71],9%,45%
C=CC(=O)N1CCN(c2nc(OC[C@@H]3CCCN3C)nc3c2CN(Cc2ccccc2CCC)C3)C[C@@H]1CC#N [1-206],86%,94%
C=CC(=O)N1CCN(c2nc(OC[C@@H]3CCCN3C)nc3c2CN(Cc2c(Cl)ccc(O)c2Cl)C3)C[C@@H]1CC#N [1-321],88%,90%
C=CC(=O)N1CCN(c2nc(Oc3cccc4c3CCN(C)C4)nc3c2CN(C2CCc4ccccc42)C3)C[C@@H]1CC#N (some centres unmarked) [1-171],9%,29%
C=CC(=O)N1CCN(c2nc(OC[C@@H]3CCCN3C)nc3c2CN(C2CCc4ccccc42)C3)C[C@@H]1Cn1cccn1 (some centres unmarked) [1-220],0%,2%
C=CC(=O)N1CCN(c2nc(OCCN3CCOCC3)nc3c2CN(Cc2cc(OC)ccc2C)C3)[C@@H](C)C1 [1-110],0%/ 0%,0%/ 0%
C=CC(=O)N1CCN(c2nc(OC3CC3)nc3c2CN(C2CCc4ccccc42)C3)C[C@@H]1CC#N (some centres unmarked) [1-152],2%,19%
C=CC(=O)N1CCN(c2nc(OC[C@@H]3CCCN3C)nc3c2CN(C2CCCc4cccc(Cl)c42)C3)C[C@@H]1CC#N (some centres unmarked) [1-72],95%,98%
C=CC(=O)N1CCN(c2nc(OC[C@@H]3CCCN3C)nc3c2CN(C2COc4ccccc42)C3)C[C@@H]1CC#N (some centres unmarked) [1-106],59%,75%
